Data set [1] has as its system BT20 cells. Kind of data set: Growth of estrogen receptor-negative breast cancer in vivo. The arrangement: species or system athymic nude mice. The method, then: BT20 cells (estrogen receptor-negative, human breast cancer cells; 5 million) were injected with Matrigel (10 mg/ml) into each flank of 10 weeks old female athymic nude mice. Mice were maintained on a low-calcium diet (0.4% Ca, 0.3% P and no vitamin D; Harlan Teklad). Then, mice bearing equal number and size tumors were randomly selected for treatment groups. […] Treatment groups received 1.5 μg/kg BCA11 at approximately 21 days after injection of cells. Control groups received vehicle (25% propylene glycol and 75% saline). Drugs or vehicle were injected i.p. three times per week. Tumor growth was monitored biweekly with caliper measurements. […] (Biochem. Pharmacol. (1992)). […] After about four weeks, the mice were divided into treatment and control groups. […] Control groups received vehicle (25% propylene glycol and 75% saline). Drugs or vehicle were injected i.p. three times per week. Tumor growth was monitored biweekly with caliper measurements. Tumor volumes were calculated as indicated in Example 7.

Data set [2] in a line: Serum calcium and toxicity with chronic in vivo administration. The arrangement: species or system athymic nude mice. The following applies: 1 μg/kg alternate days, 5 weeks, FIG. 7. The method, then:
MCF-7 cells were injected with Matrigel (10 mg/ml) into 7 weeks old female athymic nude mice. Tumors were grown in the presence of implanted estrogen pellets (0.72 mg pellets). After four weeks inoculation, mice were treated for 5 weeks with hormones or vehicle (propylene glycol) control on alternate days. BCA11 and EB1089 were added at a concentration of 1 μg/kg. Serum was drawn throughout hormone treatment from the orbital vein of the mice and assayed by the Department of Clinic Chemistry, National Institutes of Health, by methods well-known in the art. […] Similar results were obtained from multiple blood samples taken from the phase II study. Calcium and phosphorous levels were assayed by Ani Lytics and fell within normal ranges. In addition, alkaline phosphatase, albumin, bilirubin and creatinine levels were measured in both phases.

The test system of data set [3] is MCF-7 cells. Kind of data set: In vivo inhibition of advanced stage tumor growth. The arrangement: species or system athymic nude mice. The following applies: 2 mg/kg on alternate days, day 35, estrogen pellets. The method, then: MCF-7 cells were injected with Matrigel (10 mg/ml) into 7 weeks old female athymic nude mice (10 mice/treatment group). Tumors were grown in the presence of implanted estrogen pellets (0.72 mg pellets). Four weeks after inoculation, mice were treated for 5 weeks with hormones or vehicle (propylene glycol) on alternate days. BCA11 was added at a concentration of 1 μg/kg and Tamoxifen was added at a concentration of 2 mg/kg.

In data set [4] the test system is MCF-7 cells. Kind of data set: [3H]-Thymidine incorporation assay. In kind it is cell-based, human. The following applies: for effect on MCF-7 cell proliferation ([3H]-thymidine incorporation): 3 days treatment, FIG. 2 and 3. The method, then:
MCF-7 cells (10,000 cells/well) were subcultured in 24 well plates and treated with hormone for 3 days in graded concentrations (FIG. 2). For the last 12 hours, [^3H]-thymidine (0.5 μCi/well) was added to cells. Cells were treated with TCA (20% for 15 minutes, twice with 10% for 3 minutes, and ethanol for 3 minutes). Acid-insoluble material was dissolved in 1 N NaOH, then neutralized with 1 N HCl. Radioactivity was measured by liquid scintillation counting. Data were expressed as radioactivity (% of control). The control was cells treated with vehicle (0.1% ethanol). […] Anti-proliferative effects of BCA11 and calcitriol were additive.

In data set [5] the test system is BT20 cells. Kind of data set: Effect of dietary vitamin D on BT20 tumor growth. The data set is classed as in vivo, athymic nude mice. The following applies: for tumor weight: day 69. The method, then: BT20 cells (estrogen receptor-negative, human breast cancer cells; 5 million) were injected with Matrigel (10 mg/ml) into each flank of 10 weeks old female athymic nude mice. Tumor growth was monitored for six weeks on a low-calcium diet (0.4% Ca, 0.3% P and no vitamin D; Harlan Teklad). Then, mice bearing equal number and size tumors were randomly selected for treatment groups. One group continued on the low-calcium diet (serum 25-OH-D3 approx. 2 pg/ml) and received vehicle and the other group was placed on a normal diet (1.19% Ca, 0.86% P, and 6.6 mg/kg vitamin D; serum 25-OH-D3 approx. 18 pg/ml) and received vehicle.
Six weeks old female athymic mice were placed on diets of 0.5% Ca, 0.3% P, and either no vitamin D (serum 25-OH-D3 approx. 3 pg/ml; serum calcitriol approx. 30 pg/ml) or vitamin D (4 mg/kg (serum 25-OH-D3 approx. 34 pg/ml; serum calcitriol approx. […]) or 40 mg/kg (serum 25-OH-D3 approx. 73 pg/ml; serum calcitriol approx. 70 pg/ml)). Two weeks later, BT20 cells (5 million) were injected with Matrigel (10 mg/ml) into each flank and tumor growth was monitored in the absence of drug treatment.

Compound `C=C1/C(=C\C=C2/CCC[C@]3(C)[C@@H]([C@H](C)/C=C/C=C/C(O)(CC)CC)CC[C@@H]23)C[C@@H](O)C[C@@H]1O` [EB1089] yielded a tumor weight with BT20 cells [1] (1.0 μg/kg, day 69) of about 0.07 g. In addition, the tumor volume result in the data set on BT20 cells [1] (i.p. three times per week, around 60 days of treatment, 4 mg/kg vitamin D diet) is reported as “approximately 14 mm^3”. The serum calcium levels entry in data set [2] is listed as “fell within the normal range of physiological calcium”.

With `CC/C(=C(\c1ccccc1)c1ccc(OCCN(C)C)cc1)c1ccccc1` [Tamoxifen], in the data set on MCF-7 cells [3], the “inhibition of tumor growth (tumor volume) compared to control” value was “about 50%”.

As to `C[C@]12CC[C@@H]3c4ccc(O)cc4CC[C@H]3[C@@H]1CC[C@@H]2O` [17β Estradiol], in the data set with MCF-7 cells [4], the “effect on MCF-7 cell proliferation ([3H]-thymidine incorporation)” value is “stimulate cell growth”.

On to vitamin D, for which the tumor volume entry in the data set with BT20 cells [5] (diet with 4 mg/kg vitamin D, 36 days after injection of BT20 cells) is listed as “approximately 12.5 mm^3”; in the data set with BT20 cells [5] (diet with 40 mg/kg vitamin D, 36 days after injection of BT20 cells), “approximately 9.5 mm^3”; with BT20 cells [5] (normal diet with 6.6 mg/kg vitamin D, 41 days after inoculation) it was “approx. 37 mm^3”. The values for the tumor weight entry in the data set on BT20 cells [5] (diet with 4 mg/kg vitamin D) and in the data set on BT20 cells [5] (diet with 40 mg/kg vitamin D) were “approximately 0.3 g” and “approximately 0.19 g”, respectively.

In the case of `C=C1/C(=C\C=C2/CCC[C@]3(C)[C@@H]([C@H](C)CCCC(C)(C)O)CC[C@@H]23)C[C@@H](O)C[C@@H]1O` [Calcitriol, 1,25-dihydroxycholecalciferol], the “[3H]-Thymidine Incorporation MCF-7 cells (% of Control)” value in the data set with MCF-7 cells [4] (10 nM of each hormone) was 67 ± 8 % of Control. Moreover, in the data set with MCF-7 cells [4], the “effect on MCF-7 cell proliferation ([3H]-thymidine incorporation)” value is listed as “stimulate cell growth”.

For the origin of these results see US7361664B2, “Vitamin D receptor antagonists and related compositions and methods of use” (The United States of America as represented by the …, priority 2001, dated 2008).
